Measured values: patent US20260183274A1, “PDK1 REGULATORY COMPOUND AND COMPOSITION CONTAINING THE SAME” (PROVIBIO CO., LTD., priority 2024, published 2026)

Assays:
[1] = system: T cells isolated from mouse spleens; assay: T cell proliferation inhibition (CFSE flow cytometry, anti-CD3/anti-CD28 stimulation); format: cell-based; conditions: mouse spleen T cells, 3 days; for inhibition at 0.01 µM / inhibition at 0.1 µM / inhibition at 1 µM / inhibition at 10 µM / inhibition at 30 µM / inhibition at 50 µM: Mus musculus, T-cell, 72 h, read-out: Proliferation inhibition rate (%)
Outline: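 Proliferation inhibition (%) came from flow cytometry of CFSE dilution after 3 days' culture at 37 °C with compound (10 nM, 100 nM, 1, 10, 30, 50 μM; triplicate wells). Cells were magnetically purified T cells from C57BL/6 mouse spleens, 2×10^5 per well, stimulated with 0.5 μg/mL each anti-CD3 and anti-CD28.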

[2] = system: Human B Lymphocyte cell line, SU-DHL-8; assay: Relative cell viability CCK-8, SU-DHL-8; format: cell-based; conditions: for viability at 1 µM / viability at 10 µM / viability at 30 µM / viability at 50 µM: Homo sapiens, SU-DHL-8, 48 h; for viability at 1 µM: read-out: Relative cell viability (%), SU-DHL-8, 1 μM; for viability at 10 µM: read-out: Relative cell viability (%), SU-DHL-8, 10 μM; for viability at 30 µM: read-out: Relative cell viability (%), SU-DHL-8, 30 μM; for viability at 50 µM: read-out: Relative cell viability (%), SU-DHL-8, 50 μM
Method: Human-derived B lymphoma cell line SU-DHL-8 (Cat. #CRL-2961) purchased from ATCC was cultured in RPMI-1640 medium containing 10% FBS, 100 U/mL penicillin, and 100 μg/mL streptomycin.
The cell culture medium was then harvested, centrifuged at 1,300 rpm for 5 minutes, and the supernatant was removed. The cells were resuspended in the same medium and dispensed into a 96-well plate (Costar 96-well cell culture plate, Corning) at 90 μL per well, resulting in the conditions specified in Table 5.
Then, 10 μL of CCK-8 was added to each well, and the plates were incubated again at 37° C. in a 5% CO2 incubator for 4 hours.
In other words, when the survival rate of untreated cells (DMSO) is set at 100%, the relative cell survival rate in each group treated with the drug at different concentrations is indicated.

[3] = 1 μM, 48 hours, untreated (DMSO) = 100%
[4] = 10 μM, 48 hours, untreated (DMSO) = 100%
[5] = 30 μM, 48 hours, untreated (DMSO) = 100%
[6] = 50 μM, 48 hours, untreated (DMSO) = 100%
[7] = 48 hours, untreated (DMSO) = 100%

SMILES | Proliferation inhibition rate (%) ([1]; compound 10 nM) | Proliferation inhibition rate (%) ([1]; compound 100 nM) | Proliferation inhibition rate (%) ([1]; compound 1 μM) | Proliferation inhibition rate (%) ([1]; compound 10 μM) | Proliferation inhibition rate (%) ([1]; compound 30 μM) | Proliferation inhibition rate (%) ([1]; compound 50 μM) | Relative cell viability (%), SU-DHL-8 [2, 3] [%] | Relative cell viability (%), SU-DHL-8 [2, 4] [%] | Relative cell viability (%), SU-DHL-8 [2, 5] [%] | Relative cell viability (%), SU-DHL-8 [2, 6] [%] | inhibition at 0.01 µM ([1]; compound 10 nM) [%] | inhibition at 0.1 µM ([1]; compound 100 nM) [%] | inhibition at 1 µM ([1]; compound 1 μM) [%] | inhibition at 10 µM ([1]; compound 10 μM) [%] | inhibition at 30 µM ([1]; compound 30 μM) [%] | inhibition at 50 µM ([1]; compound 50 μM) [%] | viability at 1 µM [2, 7] [%] | viability at 10 µM [2, 7] [%] | viability at 30 µM [2, 7] [%] | viability at 50 µM [2, 7] [%] | also measured
CC1CCCN(CCCCCCCCCCCCNC(=O)c2cccnc2N)CC1 (stereo not drawn) [Compound 39, 2-Amino-N-(12-(4-methylazepan-1-yl)dodecyl) nicotinamide] | −58.92 | 100.00 | 100.00 | 100.00 | 100.00 | 100.00 | 11.48 | 8.41 | 6.24 | 4.27 | – | – | – | – | – | – | – | – | – | – | –
CC1CN(C)C(CCCCCCCCCCCCNc2ccc3cncnc3n2)N1 (stereo not drawn) [Compound 43] | −10.80 | 100.00 | 100.00 | 100.00 | 100.00 | 100.00 | 22.61 | 11.93 | 2.34 | 1.58 | – | – | – | – | – | – | – | – | – | – | –
Nc1ncccc1C(=O)NCCCCCCCCCCCCN1CC2CCCC2C1 (stereo not drawn) [Compound 46, 2-Amino-N-(12-(hexahydrocyclopenta[c]pyrrol-2 (1H)-yl)dodecyl)nicotinamide] | – | – | – | – | – | – | – | – | – | – | -10.5 | 100 | 100 | 100 | 100 | 100 | 4.8 | 2.44 | 2.08 | – | Relative cell viability (%), SU-DHL-8 ([2]; human, 48 h, 50 µM): −0.92%
Cc1ccc(C2CCN(CCCCCCCCCCCCNC(=O)c3cccnc3N)CC2)cc1 [Compound 55, 2-Amino-N-(12-(4-(p-tolyl)piperidin-1-yl)dodecyl) nicotinamide] | 89.67 | 100.00 | 100.00 | 100.00 | 100.00 | 100.00 | 9.36 | 4.92 | 1.10 | 0.97 | – | – | – | – | – | – | – | – | – | – | –
Cc1nnc(C)n1CCCCCCCCCCCCNC(=O)c1cccnc1N [Compound 56, 2-Amino-N-(12-(3,5-dimethyl-4H-1,2,4-triazol-4-yl)dodecyl)nicotinamide] | – | – | – | – | – | – | – | – | – | – | -2.51 | 2.91 | 81.1 | 100 | 100 | 100 | 32.4 | 19.6 | 11.2 | 0 | –
Nc1ncccc1C(=O)NCCCCCCCCF [Compound 61, 2-Amino-N-(8-fluoro-octyl)-nicotinamide] | – | – | – | – | – | – | – | – | – | – | -10.2 | -6.37 | -5.75 | 34.9 | 85.4 | 93.2 | 48.8 | 36.4 | 42 | 21 | –
O=C(NCCCCCCCCCCCCF)c1cccnc1S [Compound 62, N-(12-fluoro-dodecyl)-2-mercapto-nicotinamide] | – | – | – | – | – | – | – | – | – | – | 0 | 0 | 0 | -18.5 | 100 | 100 | 32.5 | 24.9 | 22.9 | 19.3 | –
Nc1ncccc1C(=O)NCCCCCCCCCCN1CCOCC1 [Compound 63, 2-Amino-N-(10-morpholin-4-yl-decyl)-nicotinamide] | – | – | – | – | – | – | – | – | – | – | -9.84 | 4.85 | 11.2 | 100 | 100 | 100 | 33 | 29.8 | 29.1 | 27.9 | –
O=C(NCCCCCCCCCCCCF)c1ncccc1O [Compound 64, 3-Hydroxy-pyridine-2-carboxylic acid (12-fluoro-dodecyl)-amide] | – | – | – | – | – | – | – | – | – | – | -4.11 | 8.63 | 6.99 | 8.94 | 80.4 | 97 | 23.3 | 14.1 | 6.51 | 6.33 | –
Cl.Nc1ncccc1C(=O)NCCCCCCCCCCCCF [Compound 69, 3-(12-fluoro-dodecylcarbamoyl)-pyridin-2-yl-ammonium chloride] | −4.04 | −4.66 | 7.14 | 65.36 | 89.94 | 99.20 | 27.80 | 15.16 | 1.05 | 0.77 | – | – | – | – | – | – | – | – | – | – | –
Nc1ccncc1C(=O)NCCCCCCCCCCCCF [Compound 73, 4-Amino-N-(12-fluoro-dodecyl)-nicotinamide] | – | – | – | – | – | – | – | – | – | – | -6.44 | 5.75 | 7.4 | 84.8 | 100 | 100 | 11.9 | 5.03 | 0.98 | 0.91 | –
Nc1ncccc1C(=O)NCCCCCCCCCCCCn1nnc2cccnc21 [Compound 88, N-(12-(3H-[1,2,3]triazolo[4,5-b]pyridin-3-yl)dodecyl)-2-aminonicotinamide] | – | – | – | – | – | – | – | – | – | – | -3.22 | 4.29 | 56.3 | 100 | 100 | 100 | 12.6 | 5.98 | 5.06 | 2.23 | –
Cl.O=C(NCCCCCCCCCCCCN1CCNCC1)c1ccc(-c2ccccc2)o1 [Compound 90, 5-Phenyl-N-(12-(piperazin-1-yl)dodecyl) furan-2-carboxamide hydrochloride] | −8.27 | −2.03 | 66.18 | 100.00 | 100.00 | 100.00 | 7.19 | 5.94 | 2.48 | 1.94 | – | – | – | – | – | – | – | – | – | – | –
CN1CCN(CCCCCCCCCCCCNC(=O)c2ccc3[nH]cnc3c2)CC1 [Compound 91, N-(12-(4-methylpiperazin-1-yl)dodecyl)-1H-benzo[d]imidazole-5-carboxamide] | – | – | – | – | – | – | – | – | – | – | -14.6 | 100 | 100 | 100 | 100 | 100 | 3.93 | 3.12 | 1.84 | 1.59 | –
CN1CCN(CCCCCCCCCCCCNC(=O)c2cccnc2F)CC1 [Compound 121, 2-fluoro-N-(12-(4-methylpiperazin-1-yl)dodecyl) nicotinamide] | 0.00 | 0.00 | 0.00 | 30.00 | 100.00 | 100.00 | 34.89 | 28.99 | 29.04 | 31.11 | – | – | – | – | – | – | – | – | – | – | –
